# Source: article PMC10747822 (Pharmaceutics, 2023)
# Read-outs that look alike come from different tables or passages of the source. Where a SMILES comes first, the peptide text is derived from it. [ ]: non-standard residue; d: D form. The star is where a group is joined. NH(4-amidinobenzyl) = N=C(N)c1ccc(CN*)cc1
# Key:
# [1] = Blood pharmacokinetics in mice after intravenous and intraperitoneal injection; format: in vivo, C57Bl/6 female mice; conditions: for half-life: C57Bl/6, mouse, whole blood sampled at 20, 40, 60, 120 min, non-compartmental
# Procedure: Animal studies were approved by the regulatory authorities (Regierungspräsidium Karlsruhe of the state of Baden-Württemberg/Germany, 35-9185.81/G-145/21) and fully complied with European and national regulations for the care and use of laboratory animals (2010/63/EU). Eight- to ten-week-old C57Bl/6 female mice (Janvier) were used for the study.
# The animals were administered 4 mg/kg Ac-[D-Leu]LLLRVK-amba in 0.100 mL 0.9% sodium chloride (NaCl) solution per mouse. Four animals received the peptide as intraperitoneal injection, and three animals as intravenous bolus injection into the tail vein. Blood samples were taken 20, 40, 60, and 120 min after administration by collecting a drop of blood from puncture of the facial vein into EDTA tubes (KABE Labortechnik, Nümbrecht, Germany). Whole-blood samples were immediately snap-frozen in liquid nitrogen and stored at −80 °C until analysis.
# (§1) Blood samples for calibration and QC purposes were generated through the addition of 25 µL of the pertinent spike solution to 20 µL of blank blood and the subsequent addition of 25 µL of IS solution. Calibration samples were produced at 10, 30, 100, 300, 1000, 3000, and 10,000 ng/mL, and QC samples were produced at concentrations of 10, 30, 3750, and 7500 ng/mL. For study sample processing, 20 µL of each sample was added to 25 µL of IS solution, and 25 µL of ACN/H2O 1/1 + 0.1% FA was added for volume compensation to ensure that sample preparation matches that of study blood samples. For stability reasons, each sample was immediately depleted from proteins by adding 150 µL ACN including 0.1% FA. Samples were processed individually and kept frozen until processing. Subsequently, samples were centrifuged at 13,200× g for 5 min. From the extracts, 10 µL was transferred to 400 µL of ACN/H2O 1/19 + 0.1% FA in wells of a 96-well collection plate (Waters, Milford, MA, USA).
# Calibration curves were determined with 1/x^2 weighted linear regression using peak area ratios of the analyte to IS. This calculation was performed using the software TargetLynx V4.2 (Waters, Milford, MA, USA). Blood pharmacokinetics were determined with the software Kinetica (v 5.0; Thermo Fisher Scientific, Waltham, MA, USA). Pharmacokinetic analyses were performed using standard non-compartmental methods. The elimination rate (λ) was calculated by linear regression of ln-transformed concentrations from the terminal concentration decline, and the half-life was calculated as ln 2 divided by λ. Standard calculations were performed using Microsoft Office Excel 2010 (Mountain View, CA, USA).
# [2] = Freeze-and-thaw stability in whole blood QC samples; format: in vitro ADME, human; conditions: for freeze-and-thaw stability, Accuracy [%]: one cycle
# Procedure: as §1
# The applicable recommendations for bioanalytical method validation of the FDA and EMA were applied to the validation of the assay. Accuracy was calculated as the percentage of the ratio of the mean of the determined concentrations and the nominal concentration. The acceptance limit is 100 ± 15%, with the exception of the LLOQ where it is 100 ± 20% Q. The assay precision was calculated as the coefficient of variation of the determined sample concentrations. It needs to be ≤15% in general and ≤20% at the LLOQ. Each validation run included blank and IS controls, seven calibration samples in duplicate determination, and four QC samples (LLOQ and low, mid, and high QC concentrations) in six-fold determination. Recovery of the whole blood extraction process was calculated from peak areas of QC samples divided by the peak areas obtained from blank blood spiked with the respective amount after processing. Assessment of matrix effects was performed by the ratio of peak areas of blank blood samples spiked after processing with the peak areas of UPLC solvent containing an identical amount of analyte. Stability of the analyte was investigated in freeze-and-thaw cycles separated by at least 24 h and at room temperature for testing bench-top stability.
# Because an isotopically labeled analog of Ac-[D-Leu]LLLRVK-amba was used as IS, potential variations in (negligible) matrix effects can be efficiently balanced by the IS due to its identical physicochemical characteristics. As a consequence, whole blood from other species is appropriate for calibration and QC preparation. Therefore, whole blood from human donors was used for these purposes, which also helps to reduce animal sacrifice.
smiles,measurement,setting,value
CC(=O)N[C@H](CC(C)C)C(=O)N[C@@H](CC(C)C)C(=O)N[C@@H](CC(C)C)C(=O)N[C@@H](CC(C)C)C(=O)N[C@@H](CCCNC(=N)N)C(=O)N[C@H](C(=O)N[C@@H](CCCCN)C(=O)NCc1ccc(C(=N)N)cc1)C(C)C [Ac-[D-Leu]LLLRVK-amba] (Ac-[dL]LLLRVK-{NH(4-amidinobenzyl)}),level at 2 h,"[1]; female, C57Bl/6, ip, mouse #1, 2 h after intraperitoneal administration of 4 mg/kg, whole blood, UPLC-MS/MS, single sample, read-out: calculated blood concentration",15.8 ng/mL
same,half-life,"[1]; female, ip, mice, 4 mg/kg intraperitoneal, n = 4, UPLC-MS/MS, read-out: half-life after intraperitoneal administration",15.9 ± 1 min
same,half-life,"[1]; female, mice, 4 mg/kg intravenous bolus into tail vein, n = 3, UPLC-MS/MS, read-out: half-life after intravenous injection",21 ± 1.6 min
same,intraperitoneal absorption,"[1]; mice, 4 mg/kg intraperitoneal vs intravenous, judged by partial profiles, bioavailability not calculable",very efficient
same,"freeze-and-thaw stability, accuracy","[2]; whole blood QC samples, one freeze-and-thaw cycle, range over QC levels, corresponding precision ≤14.0%, UPLC-MS/MS",91.5 to 98.3%
same,deviation after further freeze-and-thaw cycles,"[2]; whole blood, more than one freeze-and-thaw cycle, cycles separated by at least 24 h",> 15%
same,"freeze-and-thaw stability, Accuracy [%]","[2]; whole blood, QC A, UPLC-MS/MS",91.5%
same,"freeze-and-thaw stability, Accuracy [%]","[2]; whole blood, QC B, UPLC-MS/MS",91.6%
same,"freeze-and-thaw stability, Accuracy [%]","[2]; whole blood, QC C, UPLC-MS/MS",98.3%
